Measurements as given in ChEMBL document CHEMBL1201862, “PubChem BioAssay data set” (2004).
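Each compound was tested at five concentrations against cells in 96-well plates for 48 hours. GI50 marks 50% less growth.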 The source made the active and inactive calls. No stated cut-off is given here; in the data, active = GI50 up to about 1.1 µM and inactive = higher.

Assays:
Test in all cases: NCI anticancer screen, dose series, 48 h
OVCAR-8 = system: OVCAR-8
PC-3 = system: PC-3
SK-MEL-28 = system: SK-MEL-28
HOP-62 = system: HOP-62
SF-268 = system: SF-268
HCT-116 = system: HCT-116
SNB-75 = system: SNB-75
RXF 393 = system: RXF 393
IGROV-1 = system: IGROV-1
LOX IMVI = system: LOX IMVI
HCT-15 = system: HCT-15
M14 = system: M14
SF-539 = system: SF-539
COLO 205 = system: COLO 205
SK-OV-3 = system: SK-OV-3
NCI/ADR-RES = system: NCI/ADR-RES
RPMI-8226 = system: RPMI-8226
Malme-3M = system: Malme-3M
SN12C = system: SN12C
SW-620 = system: SW-620
CCRF-CEM = system: CCRF-CEM
MCF7 = system: MCF7
SK-MEL-2 = system: SK-MEL-2
SNB-19 = system: SNB-19
HCC 2998 = system: HCC 2998
CAKI-1 = system: CAKI-1
HT-29 = system: HT-29
MDA-N = system: MDA-N
NCI-H522 = system: NCI-H522
Hs-578T = system: Hs-578T
MDA-MB-231 = system: MDA-MB-231
BT-549 = system: BT-549
UACC-257 = system: UACC-257
SK-MEL-5 = system: SK-MEL-5
786-0 = system: 786-0
HL-60 = system: HL-60
UACC-62 = system: UACC-62
SR = system: SR
DU-145 = system: DU-145
OVCAR-5 = system: OVCAR-5
ACHN = system: ACHN
TK-10 = system: TK-10
A549 = system: A549
MOLT-4 = system: MOLT-4
MDA-MB-435 = system: MDA-MB-435
KM12 = system: KM12
K562 = system: K562
UO-31 = system: UO-31
T47D = system: T47D
NCI-H460 = system: NCI-H460
NCI-H23 = system: NCI-H23
HOP-92 = system: HOP-92
OVCAR-3 = system: OVCAR-3
SF-295 = system: SF-295
EKVX = system: EKVX
U-251 = system: U-251
A498 = system: A498
NCI-H226 = system: NCI-H226
OVCAR-4 = system: OVCAR-4

For O=C1Nc2cccc(Cl)c2/C1=C\c1c(Cl)nc2sccn12, the GI50 (OVCAR-8) was 31.1 µM (inactive), the GI50 (PC-3) was 64.4 µM (inactive) and the GI50 (SK-MEL-28) was > 100 µM (inactive). The GI50 (HOP-62) was 15 µM (inactive), the GI50 (SF-268) was 18.9 µM (inactive) and the GI50 (HCT-116) was 37.3 µM (inactive). The GI50 (SNB-75) was 11.2 µM (inactive), the GI50 (RXF 393) was 13.7 µM (inactive) and the GI50 (IGROV-1) was 28 µM (inactive). The GI50 (LOX IMVI) was 63.8 µM (inactive), the GI50 (HCT-15) was greater than 100 µM and the GI50 (M14) was 50.2 µM (inactive). For the same compound, the GI50 (SF-539) was 5.2 µM (inactive), the GI50 (COLO 205) was > 100 µM (inactive) and the GI50 (SK-OV-3) was 14.9 µM (inactive). The GI50 (NCI/ADR-RES) was 55.1 µM (inactive), the GI50 (RPMI-8226) was > 100 µM (inactive) and the GI50 (Malme-3M) was 76 µM (inactive). The GI50 (SN12C) was 29.6 µM (inactive), the GI50 (SW-620) was > 100 µM (inactive) and the GI50 (CCRF-CEM) was > 100 µM (inactive). For the same compound, the GI50 (MCF7) was > 100 µM (inactive), the GI50 (SK-MEL-2) was 13.5 µM (inactive) and the GI50 (SNB-19) was 17.6 µM (inactive). For the same compound, the GI50 (HCC 2998) was > 100 µM (inactive), the GI50 (CAKI-1) was 43.2 µM (inactive) and the GI50 (HT-29) was > 100 µM (inactive). The GI50 (MDA-N) was > 100 µM (inactive), the GI50 (NCI-H522) was 50.5 µM (inactive) and the GI50 (Hs-578T) was 21.9 µM (inactive). For the same compound, the GI50 (MDA-MB-231) was 16.3 µM (inactive), the GI50 (BT-549) was 28.8 µM (inactive) and the GI50 (UACC-257) was > 100 µM (inactive). For the same compound, the GI50 (SK-MEL-5) was > 100 µM (inactive), the GI50 (786-0) was 9.31 µM (inactive) and the GI50 (HL-60) was > 100 µM (inactive). For the same compound, the GI50 (UACC-62) was 31.5 µM (inactive), the GI50 (SR) was > 100 µM (inactive) and the GI50 (DU-145) was 65 µM (inactive). The GI50 (OVCAR-5) was > 100 µM (inactive), the GI50 (ACHN) was 12.2 µM (inactive) and the GI50 (TK-10) was 11.2 µM (inactive). For the same compound, the GI50 (A549) was > 100 µM (inactive), the GI50 (MOLT-4) was > 100 µM (inactive) and the GI50 (MDA-MB-435) was > 100 µM (inactive). The GI50 (KM12) was > 100 µM (inactive), the GI50 (K562) was > 100 µM (inactive) and the GI50 (UO-31) was 27.7 µM (inactive). The GI50 (T47D) was 44.6 µM (inactive), the GI50 (NCI-H460) was > 100 µM (inactive) and the GI50 (NCI-H23) was 21.7 µM (inactive). The GI50 (HOP-92) was 16.8 µM (inactive), the GI50 (OVCAR-3) was > 100 µM (inactive) and the GI50 (SF-295) was 28.2 µM (inactive). For the same compound, the GI50 (EKVX) was 43.3 µM (inactive), the GI50 (U-251) was 6.03 µM (inactive) and the GI50 (A498) was 33.1 µM (inactive).

For CC(=O)OCC1OC(n2c(Br)nc3c2c(=O)n(C)c(=O)n3C)C(OC(C)=O)C1OC(C)=O (centres undefined), the GI50 (OVCAR-8) was 42 µM (inactive), the GI50 (PC-3) was 45.8 µM (inactive) and the GI50 (SK-MEL-28) was > 100 µM (inactive). The GI50 (HOP-62) was > 100 µM (inactive), the GI50 (SF-268) was 62.7 µM (inactive) and the GI50 (HCT-116) was 35.1 µM (inactive). The GI50 (SNB-75) was 85.1 µM (inactive), the GI50 (RXF 393) was > 100 µM (inactive) and the GI50 (IGROV-1) was > 100 µM (inactive). The GI50 (LOX IMVI) was 43.2 µM (inactive), the GI50 (HCT-15) was greater than 100 µM and the GI50 (M14) was 77.1 µM (inactive). For the same compound, the GI50 (SF-539) was 59.2 µM (inactive), the GI50 (COLO 205) was 75 µM (inactive) and the GI50 (SK-OV-3) was > 100 µM (inactive). The GI50 (NCI/ADR-RES) was > 100 µM (inactive), the GI50 (RPMI-8226) was 27.9 µM (inactive) and the GI50 (Malme-3M) was > 100 µM (inactive). For the same compound, the GI50 (SN12C) was 79.4 µM (inactive), the GI50 (SW-620) was 76.9 µM (inactive) and the GI50 (MCF7) was 69.8 µM (inactive). The GI50 (SNB-19) was 74.8 µM (inactive), the GI50 (HCC 2998) was > 100 µM (inactive) and the GI50 (CAKI-1) was > 100 µM (inactive). For the same compound, the GI50 (HT-29) was 43.8 µM (inactive), the GI50 (MDA-N) was 33.6 µM (inactive) and the GI50 (NCI-H522) was 45.9 µM (inactive). The GI50 (Hs-578T) was 45.8 µM (inactive), the GI50 (MDA-MB-231) was > 100 µM (inactive) and the GI50 (BT-549) was 28.8 µM (inactive). The GI50 (UACC-257) was 50.2 µM (inactive), the GI50 (SK-MEL-5) was 31.9 µM (inactive) and the GI50 (786-0) was 89.9 µM (inactive). For the same compound, the GI50 (HL-60) was 21.3 µM (inactive), the GI50 (UACC-62) was 67.6 µM (inactive) and the GI50 (SR) was 19.9 µM (inactive). For the same compound, the GI50 (DU-145) was 38.2 µM (inactive), the GI50 (OVCAR-5) was > 100 µM (inactive) and the GI50 (ACHN) was 48.3 µM (inactive). The GI50 (TK-10) was > 100 µM (inactive), the GI50 (A549) was > 100 µM (inactive) and the GI50 (MOLT-4) was > 100 µM (inactive). For the same compound, the GI50 (MDA-MB-435) was 29.4 µM (inactive), the GI50 (KM12) was 64.9 µM (inactive) and the GI50 (K562) was 53.3 µM (inactive). The GI50 (UO-31) was > 100 µM (inactive), the GI50 (NCI-H226) was 71.6 µM (inactive) and the GI50 (T47D) was > 100 µM (inactive). For the same compound, the GI50 (NCI-H460) was 84.3 µM (inactive), the GI50 (NCI-H23) was 77.3 µM (inactive) and the GI50 (OVCAR-4) was 27.5 µM (inactive). For the same compound, the GI50 (HOP-92) was 83 µM (inactive), the GI50 (OVCAR-3) was 48.1 µM (inactive) and the GI50 (SF-295) was > 100 µM (inactive). The GI50 (EKVX) was 64.7 µM (inactive), the GI50 (U-251) was 39.8 µM (inactive) and the GI50 (A498) was 43 µM (inactive).
